US20040049086A1, “Diphenol and process for producing the same” (priority 2001, published 2004)

SMILES	melting point
Cc1cc(C2CCC(c3ccc(O)cc3)CC2)ccc1O (stereo not drawn) [Example 1 of Example B, 4-(4′-(4″-hydroxyphenyl)cyclohexyl)-2-methyl-1-hydroxybenzene]	159 °C
Cc1cc(C2=CCC(c3ccc(O)cc3)CC2)cc(C)c1O (stereo not drawn) [Example 5 of Example A, 1-(3,5-dimethyl-4-hydroxyphenyl)-4-(4-hydroxyphenyl)-1-cyclohexene]	224 °C
Cc1cc(C2=CCC(c3ccc(O)cc3)CC2)ccc1O (stereo not drawn) [Example 2 of Example A, 1-(3-methyl-4-hydroxyphenyl)-4-(4-hydroxyphenyl)-1-cyclohexene]	201 °C
Cc1cc(-c2ccc(-c3ccc(O)cc3)cc2)cc(C)c1O [Example 2 of Example C, 4-hydroxy-3″,5″-dimethyl-4″-hydroxy-p-terphenyl]	231 °C
CC(C)(C)c1cc(C2=CCC(c3ccc(O)cc3)CC2)ccc1O (stereo not drawn) [Example 4 of Example A, 1-(3-t-butyl-4-hydroxyphenyl)-4-(4-hydroxyphenyl)-1-cyclohexene]	188 °C
Cc1cc(-c2ccc(-c3ccc(O)cc3)cc2)ccc1O [Example 1 of Example C, 4-hydroxy-3″-methyl-4″-hydroxy-p-terphenyl]	251.4 °C
